We go through 13 molecules from patent US12122767B2, “Bicyclic heterocycles as FGFR inhibitors” (Incyte Corporation, priority 2019, dated 2024).

The assay has as its target T1, FGFR3 enzyme (Millipore) (Homo sapiens, UniProt P22607).
T1 construct: purchased Millipore
The experiment in a line: FGFR Enzymatic Assay (peptide phosphorylation, FRET). To be noted: pre-incubated for 4 hours; ATP 140 μM, peptide 500 nM. Format: biochemical. The protocol:
The inhibitor potency of the exemplified compounds was measured in an enzyme assay that measures peptide phosphorylation using FRET measurements to detect product formation. Inhibitors were serially diluted in DMSO and a volume of 0.5 μL was transferred to the wells of a 384-well plate. For FGFR3, a 10 μL volume of FGFR3 enzyme (Millipore) diluted in assay buffer (50 mM HEPES, 10 mM MgCl2, 1 mM EGTA, 0.01% Tween-20, 5 mM DTT, pH 7.5) was added to the plate and pre-incubated for a time between 5-10 minutes and up to 4 hours. Appropriate controls (enzyme blank and enzyme with no inhibitor) were included on the plate. The assay was initiated by the addition of a 10 μL solution containing biotinylated EQEDEPEGDYFEWLE peptide substrate (SEQ ID NO: 1) and ATP (final concentrations of 500 nM and 140 μM respectively) in assay buffer to the wells. The plate was incubated at 25° C. for 1 hr. The reactions were ended with the addition of 10 μL/well of quench solution (50 mM Tris, 150 mM NaCl, 0.5 mg/mL BSA, pH 7.8; 30 mM EDTA with Perkin Elmer Lance Reagents at 3.75 nM Eu-antibody PY20 and 180 nM APC-Streptavidin). The plate was allowed to equilibrate for ˜1 hr before scanning the wells on a PheraStar plate reader (BMG Labtech).
GraphPad prism3 was used to analyze the data. The IC50 values were derived by fitting the data to the equation for a sigmoidal dose-response with a variable slope. Y=Bottom+(Top-Bottom)/(1+10^((Log IC50−X)*HillSlope)) where X is the logarithm of concentration and Y is the response.
Table 1 provides IC50 data for compounds of the invention assayed in the FGFR Enzymatic Assay after dilution in assay buffer, added to the plate and pre-incubated for 4 hours.

Where only a bound is given, the exact number is not on record here.

T1 sequence (P22607 23-806): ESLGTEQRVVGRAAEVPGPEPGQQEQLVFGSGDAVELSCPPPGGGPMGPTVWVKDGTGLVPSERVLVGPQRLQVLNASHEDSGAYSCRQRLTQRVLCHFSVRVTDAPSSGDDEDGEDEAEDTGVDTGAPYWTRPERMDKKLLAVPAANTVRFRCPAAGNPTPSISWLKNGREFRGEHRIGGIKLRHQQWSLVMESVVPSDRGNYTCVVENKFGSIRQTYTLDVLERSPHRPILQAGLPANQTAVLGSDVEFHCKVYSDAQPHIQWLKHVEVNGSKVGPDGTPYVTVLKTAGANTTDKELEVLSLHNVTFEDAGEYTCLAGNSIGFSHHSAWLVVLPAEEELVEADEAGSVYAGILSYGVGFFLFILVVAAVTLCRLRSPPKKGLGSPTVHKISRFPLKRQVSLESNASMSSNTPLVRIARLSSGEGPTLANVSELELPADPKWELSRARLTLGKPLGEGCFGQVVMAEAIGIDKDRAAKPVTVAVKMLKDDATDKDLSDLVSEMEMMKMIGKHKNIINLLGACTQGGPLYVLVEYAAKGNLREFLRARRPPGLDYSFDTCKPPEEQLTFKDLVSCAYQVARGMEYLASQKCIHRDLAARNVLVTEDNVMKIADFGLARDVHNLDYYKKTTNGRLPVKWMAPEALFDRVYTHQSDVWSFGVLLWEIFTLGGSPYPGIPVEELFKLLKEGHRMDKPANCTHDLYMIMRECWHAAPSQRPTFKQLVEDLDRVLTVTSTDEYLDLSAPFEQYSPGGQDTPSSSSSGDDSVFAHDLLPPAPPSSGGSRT

For `COc1cc2[nH]nc(-c3cnn(CCN4CCOCC4)c3)c2cc1C(=O)Nc1c(C)cccc1C` [Example 40, N-(2,6-Dimethylphenyl)-6-methoxy-3-(1-(2-morpholinoethyl)-1H-pyrazol-4-yl)-1H-indazole-5-carboxamide], the half-inhibitory concentration (IC50) (usually the concentration at which inhibition is half-maximal) was 10 to 30 nM.
Under `COc1cc2[nH]nc(-c3ccc(N4CCN(C)CC4)cc3)c2cc1C(=O)Nc1c(C)cccc1C` [Example 21, N-(2,6-Dimethylphenyl)-6-methoxy-3-(4-(4-methylpiperazin-1-yl)phenyl)-1H-indazole-5-carboxamide] stands less than 10 nM; under `COc1cc2[nH]nc(-c3cnn(C4CCN(C(C)=O)CC4)c3)c2cc1C(=O)Nc1c(C)cccc1C` [Example 25, 3-(1-(1-Acetylpiperidin-4-yl)-1H-pyrazol-4-yl)-N-(2,6-dimethylphenyl)-6-methoxy-1H-indazole-5-carboxamide], less than 10 nM; under `Cc1cc2[nH]nc(-c3cnn(C)c3)c2cc1C(=O)Nc1c(C)cccc1C` [Example 12, N-(2,6-Dimethylphenyl)-6-methyl-3-(1-methyl-1H-pyrazol-4-yl)-1H-indazole-5-carboxamide], no less than 200 nM.
Under `COc1cc2[nH]nc(-c3cnn(Cc4cccnc4)c3)c2cc1C(=O)Nc1c(C)cccc1C` [Example 41, N-(2,6-Dimethylphenyl)-6-methoxy-3-(1-(pyridin-3-ylmethyl)-1H-pyrazol-4-yl)-1H-indazole-5-carboxamide] stands 10 to 30 nM; under `COc1cc2[nH]nc(-c3cnn(C4CCN(C)CC4)c3)c2cc1C(=O)Nc1c(C)cccc1C` [Example 34, N-(2,6-Dimethylphenyl)-6-methoxy-3-(1-(1-methylpiperidin-4-yl)-1H-pyrazol-4-yl)-1H-indazole-5-carboxamide], less than 10 nM; under `CCOC(=O)N1CC(n2cc(-c3n[nH]c4cc(OC)c(C(=O)Nc5c(C)cccc5C)cc34)cn2)C1` [Example 23, Ethyl 3-(4-(5-((2,6-Dimethylphenyl)carbamoyl)-6-methoxy-1H-indazol-3-yl)-1H-pyrazol-1-yl)azetidine-1-carboxylate], less than 10 nM.
In the case of `COC(=O)N1CC(n2cc(-c3n[nH]c4cc(OC)c(C(=O)Nc5c(C)cccc5C)cc34)cn2)C1` [Example 31, Methyl 3-(4-(5-((2,6-dimethylphenyl)carbamoyl)-6-methoxy-1H-indazol-3-yl)-1H-pyrazol-1-yl)azetidine-1-carboxylate] it was less than 10 nM.
For the molecule `COc1cc2[nH]nc(-c3cnn(C4CC4)c3)c2cc1C(=O)Nc1c(C)cccc1C` [Example 44, 3-(1-Cyclopropyl-1H-pyrazol-4-yl)-N-(2,6-dimethylphenyl)-6-methoxy-1H-indazole-5-carboxamide], the IC50 is less than 10 nM.
On to `COc1cc2[nH]nc(-c3cnn(CC4CCNCC4)c3)c2cc1C(=O)Nc1c(C)cccc1C` [Example 39, N-(2,6-Dimethylphenyl)-6-methoxy-3-(1-(piperidin-4-ylmethyl)-1H-pyrazol-4-yl)-1H-indazole-5-carboxamide], for which the IC50 fell in the range of 10 to 30 nM.
In the case of `COc1cc2[nH]nc(-c3cnn(C)c3)c2cc1C(=O)Nc1c(C)cccc1OC` [Example 9, 6-Methoxy-N-(2-methoxy-6-methylphenyl)-3-(1-methyl-1H-pyrazol-4-yl)-1H-indazole-5-carboxamide] it was 30 to 200 nM; in that of `COc1cc2[nH]nc(-c3cnn(C)c3)c2cc1C(=O)Nc1c(F)cccc1Cl` [Example 2, N-(2-Chloro-6-fluorophenyl)-6-methoxy-3-(1-methyl-1H-pyrazol-4-yl)-1H-indazole-5-carboxamide], less than 10 nM.
Take `COc1cc2[nH]nc(-c3cnn(C)c3)c2cc1C(=O)Nc1c(C)cccc1Cl` [Example 3, N-(2-Chloro-6-methylphenyl)-6-methoxy-3-(1-methyl-1H-pyrazol-4-yl)-1H-indazole-5-carboxamide]: the IC50 was less than 10 nM.
